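Compound exposure: 48 hours, 5 concentrations, 96-well plates. GI50 marks 50% less growth. TGI denotes the concentration required for complete inhibition of growth.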
Legend:
Test in all cases: NCI anticancer screen, dose series, 48 h
DMS 114 small cell lung = test system: DMS 114 small cell lung
SK-MEL-28 melanoma = test system: SK-MEL-28 melanoma
M19-MEL melanoma = test system: M19-MEL melanoma
SW-620 colon = test system: SW-620 colon
NCI-H522 lung = test system: NCI-H522 lung
DLD-1 colon = test system: DLD-1 colon
SF-268 CNS = test system: SF-268 CNS
LXFL 529 NSCLC = test system: LXFL 529 NSCLC
KM20L2 colon = test system: KM20L2 colon
OVCAR-5 ovarian = test system: OVCAR-5 ovarian
HCT-116 colon = test system: HCT-116 colon
NCI/ADR-RES ovarian = test system: NCI/ADR-RES ovarian

SMILES | TGI (DMS 114 small cell lung) [µM] | TGI (SK-MEL-28 melanoma) [µM] | TGI (M19-MEL melanoma) [µM] | TGI (SW-620 colon) [µM] | TGI (NCI-H522 lung) [µM] | TGI (DLD-1 colon) [µM] | TGI (SF-268 CNS) [µM] | TGI (LXFL 529 NSCLC) [µM] | TGI (KM20L2 colon) [µM] | TGI (OVCAR-5 ovarian) [µM] | TGI (HCT-116 colon) [µM] | TGI (NCI/ADR-RES ovarian) [µM] | GI50 (SK-MEL-28 melanoma) [µM] | GI50 (SW-620 colon) [µM] | GI50 (NCI-H522 lung) [µM] | GI50 (SF-268 CNS) [µM] | GI50 (OVCAR-5 ovarian) [µM] | GI50 (HCT-116 colon) [µM] | GI50 (NCI/ADR-RES ovarian) [µM]
COCCCNC(=O)CC(=O)NCCCOC | > 100 | > 100 | > 100 | > 100 | > 100 | > 100 | > 100 | > 100 | > 100 | > 100 | > 100 |  |  |  |  |  |  |  | 
O=CC[C@H]1CCc2ccccc2C12CCC(=O)CC2 | > 100 |  | > 100 | > 100 | > 100 | > 100 | > 100 | > 100 | > 100 | > 100 | > 100 |  |  |  |  |  |  |  | 
COc1cc(OC)c(/C=C/c2cnc3ccccc3n2)c(OC)c1 |  | > 10 |  | > 10 | > 10 |  | > 10 |  |  | > 10 | > 10 | > 10 |  |  |  |  |  |  | 
CCN(C(=O)c1cc(F)ccc1Oc1cncnc1N1CC2(CCN(CC3CCC(NS(=O)(=O)CC)CC3)CC2)C1)C(C)C (stereo unspecified) |  | > 100 |  | > 100 | > 100 |  | > 100 |  |  | > 100 | > 100 | > 100 | > 100 | > 100 | > 100 | > 100 | > 100 | > 100 | > 100
NC(=O)c1cc(-c2ccc(F)cc2)cc(-c2ccncc2)c1N |  | > 25 |  | > 25 | > 25 |  | > 25 |  |  | > 25 | > 25 | > 25 | > 25 | > 25 | > 25 | > 25 | > 25 | > 25 | > 25
O=C(O)/C(=C/C=C/c1ccccc1)c1csc(-c2nc(/C(=C\C=C\c3ccccc3)C(=O)O)cs2)n1 | 72 | > 100 | > 100 | > 100 |  | 57.7 | > 100 | 64.8 | > 100 | > 100 | 40.8 |  |  |  |  |  |  |  | 
COc1ccc(/C(C#N)=C/c2ccc(OC)c(OC)c2)cc1 |  | > 100 |  | > 100 | > 100 |  | > 100 |  |  | > 100 | > 100 | > 100 |  |  |  |  |  |  | 
CN(CC(=O)N(Cc1ccc(C2CCCCC2)cc1)c1ccc(C(=O)O)c(O)c1)S(=O)(=O)c1c(F)c(F)c(F)c(F)c1F |  | 3.89 |  | 3.23 | 8.51 |  | 20.9 |  |  | 32.4 | 11.9 | 38.1 | 1.86 | 1.71 | 2.74 | 7.19 | 17.5 | 3.72 | 17.2
COc1ccc(Cn2cc3c(c2-c2ccc(OC)cc2)CCc2cnoc2-3)cc1 |  | > 100 |  | > 100 | 0.572 |  | > 100 |  |  | > 100 | > 100 | 4.08 | 0.804 | 0.353 | 0.199 | 0.686 | 2.68 | 0.451 | 0.27
CCCCS(=O)(=O)CCC(N)C(=O)O (stereo unspecified) |  | > 100 |  | > 100 | > 100 |  | > 100 |  |  | > 100 | > 100 | > 100 |  |  |  |  |  |  | 
COc1cc2c(cc1C)NC(=O)/C2=C\c1cccc(Oc2ccccc2)c1 |  | 34.9 |  | 32.9 | 34.4 |  | 31.5 |  |  | 32.4 | 20.4 | 32.4 | 18.1 | 16.1 | 13.5 | 13.9 | 17 | 7.88 | 12.9
CC[C@@H](C(=O)[C@@H](C)[C@@H](O)[C@H](C)[C@@H]1O[C@@H]([C@@H](CC)C(=O)N(CC)CC)CC[C@@H]1C)C1O[C@]2(C=CC(=O)[C@]3(CC[C@@](C)([C@H]4CC[C@](O)(CC)[C@H](C)O4)O3)O2)[C@H](C)C[C@@H]1C (stereo partly specified) |  | 21.3 |  | 23.5 | 6.46 |  | 80.9 |  |  | 10.1 | 17.4 | 26.9 | 4.45 | 3.11 | 2.02 | 3.25 | 2.85 | 3.18 | 2.82
Nc1nc(-c2ccc(F)cc2)c(-c2ccc3ncccc3n2)s1 |  | > 25 |  | > 25 | > 25 |  | > 25 |  |  | > 25 | > 25 | > 25 | > 25 | > 25 | 8.31 | 16.5 | 14.1 | > 25 | 21.7
Cc1occc1C(=S)Nc1ccc(Cl)c(C(=O)OC(C)C2CC2)c1 (stereo unspecified) |  | > 100 |  | > 100 | 32.9 |  | 59.3 |  |  | 61.2 | > 100 | 65.1 |  |  |  |  |  |  | 
Cc1cc(N(CCNc2ccnc3cc(Cl)ccc23)Cc2ccco2)nc(Cl)n1 |  | 3.38 |  | 3.46 | 3.71 |  | 6.01 |  |  | 3.23 | 2.84 | 3.96 | 1.74 | 1.75 | 1.75 | 2.16 | 1.68 | 1.48 | 1.86
CCNC(=O)c1cc2c(-c3cc(C(C)(C)O)ccc3Oc3c(C)cc(F)cc3C)cn(C)c(=O)c2[nH]1 |  | 17.9 |  | 21 | 14.2 |  | 18.6 |  |  | 16.2 | 12.5 | 23.2 | 4.37 | 3.56 | 1.76 | 3.58 | 1.63 | 1.32 | 7.49
COc1ccc(OC)c(/C=C(/C)[N+](=O)[O-])c1 |  | 4.73 |  | 3.78 | 3.64 |  | 5.22 |  |  | 10.7 | 3.54 | 11.5 | 2.22 | 1.79 | 1.93 | 2.12 | 3.13 | 1.88 | 3.22
O=C1c2ccccc2C(=O)c2c1ccc(C1C(=O)c3ccccc3C1=O)c2-c1c(C2C(=O)c3ccccc3C2=O)ccc2c1C(=O)c1ccccc1C2=O |  | > 100 |  | > 100 | > 100 |  | > 100 |  |  | > 100 | > 100 | > 100 |  |  |  |  |  |  | 

Reference: PubChem BioAssay (NCI)
